Test [1] deals with T1, Protein farnesyltransferase (Homo sapiens, UniProt P49354+P49356). Kind of test: In vitro effective concentration against farnesyltransferase (FT). The format is protein-complex assay.
Test [2] addresses T1, Protein farnesyltransferase. Nature of the test: In vitro inhibitory activity against farnesyltransferase (FT). The format is protein-complex assay.
The target of test [3] is T2, Geranylgeranyl transferase type I (Homo sapiens, UniProt P49354+P53609). Kind of test: In vitro inhibitory activity against Geranylgeranyl transferase type I. The format is protein-complex assay.
The target in test [4] is T1, Protein farnesyltransferase.
Test [5] addresses T2, Geranylgeranyl transferase type I. Nature of the test: In vitro inhibition of Geranylgeranyl transferase type I; NA means Not active. The format is protein-complex assay.
Test [6] concerns the target T1, Protein farnesyltransferase. Nature of the test: In vitro effective concentration against farnesyltransferase (FT); NA= Not active. The format is protein-complex assay.
The target is the same in test [7]. Kind of test: In vitro inhibition of farnesyltransferase (FT) at 100 nM. The format is protein-complex assay.

`Cn1cncc1C(OCc1c(-c2cccc(Cl)c2)cc(C#N)c(=O)n1C)c1ccc(C#N)c(I)c1` (stereo not drawn): in test [1], the EC50 (as a rule, the concentration at which the effect is half-maximal) was 88 nM. In addition, the IC50 (as a rule, the concentration needed to halve the response being measured) in test [2] is 0.75 nM; in test [3] it was more than 1000 nM.

Consider `Cn1cncc1C(OCc1c(-c2ccc(F)c(F)c2)cc(C#N)c(=O)n1C)c1ccc(C#N)cc1` (stereo not drawn), for which it took 10 nM to reach a half-maximal effect in test [1] (EC50). Also, the values for the IC50 in test [2] and in test [3] were 1.5 nM and 5500 nM, respectively.

With `Cn1cncc1C(OCc1c(-c2cc(Cl)ccc2Cl)cc(C#N)c(=O)n1C)c1ccc(C#N)cc1` (stereo not drawn), the EC50 in test [4] came to 1.2 nM. The values for the IC50 in test [2] and in test [3] were 1.6 nM and 2900 nM, respectively.

`Cn1cncc1C(OCc1c(-c2cccc(Cl)c2)cc(C#N)c(=O)n1C)c1ccc(C#N)c(-c2cccc(Cl)c2)c1` (stereo not drawn) had an EC50 in test [1] of 21 nM. The IC50 in test [2] stood at 1 nM; in test [3] it was 94 nM.

Regarding `Cn1c(COC(c2ccc(C#N)cc2)c2c[nH]cn2)c(-c2cccc(Cl)c2)cc(C#N)c1=O` (stereo not drawn), the IC50 entry is “Not Active” in test [5] and 71 nM in test [2]. Further, the EC50 entry in test [6] is given as “Not Active”.

In turn, `Cn1cncc1C(OCc1c(-c2ccc(OC(F)(F)F)cc2)cc(C#N)c(=O)n1C)c1ccc(C#N)cc1` (stereo not drawn) registered an EC50 in test [1] of 3.9 nM. In addition, the IC50 turned out to be 0.73 nM in test [2] and 1400 nM in test [3].

With `CCOc1cccc(-c2cc(C#N)c(=O)n(C)c2COC(c2ccc(C#N)cc2)c2cncn2C)c1` (stereo not drawn), the EC50 in test [1] came out at 0.81 nM. Further, the IC50 worked out at 0.67 nM in test [2] and 1500 nM in test [3].

In turn, `Cn1cncc1C(OCc1c(-c2cc(Cl)cc(Cl)c2)cc(C#N)c(=O)n1C)c1ccc(C#N)c(Cl)c1` (stereo not drawn) gave an EC50 in test [1] of 16 nM. Moreover, the IC50 in test [2] came out at 0.77 nM; in test [3], 190 nM.

Turning to `Cn1cncc1C(OCc1c(-c2cc(Cl)cc(Cl)c2)cc(C#N)c(=O)n1C)c1ccc(C#N)c(-c2cccc(Cl)c2)c1` (stereo not drawn), the IC50 in test [2] is 2 nM; in test [3] it was 120 nM. The EC50 result in test [6] is on record as “Not Active”.

The molecule `Cn1cncc1C(OCc1c(-c2cccc(OC(F)(F)F)c2)cc(C#N)c(=O)n1C)c1ccc(C#N)cc1` (stereo not drawn) showed an EC50 in test [1] of 3.9 nM. The IC50 in test [2] was 0.42 nM; in test [3] it was 1050 nM.

`Cn1cncc1C(OCc1c(-c2cccc(F)c2)cc(C#N)c(=O)n1C)c1ccc(C#N)cc1` (stereo not drawn): the EC50 in test [1] came to 11 nM. The IC50 was 2.1 nM in test [2] and more than 10000 nM in test [3].

In turn, `Cn1cncc1C(OCc1ccc(C#N)cn1)c1ccc(C#N)c(-c2cccc3ccccc23)c1` (stereo not drawn) returned a concentration for a half-maximal effect (EC50) in test [1] of 5.9 nM. The molecule also returned an IC50 in test [2] of 0.73 nM.

As for `Cn1cncc1C(OCc1c(-c2ccc(OC(F)(F)F)cc2)cc(C#N)c(=O)n1C)c1ccc(C#N)c(-c2ccccc2Cl)c1` (stereo not drawn), the EC50 in test [1] is more than 100 nM. The IC50 amounted to 3.9 nM in test [2] and 110 nM in test [3].

Regarding `Cn1cncc1C(OCc1c(-c2cccc(Cl)c2)cc(C#N)c(=O)n1C)c1ccc(C#N)c(Cl)c1` (stereo not drawn), the response in test [1] was half-maximal at 24 nM (EC50). The IC50 in test [2] is 0.97 nM; in test [3], 890 nM.

In test [1], `Cn1cncc1C(OCc1c(-c2cc(F)cc(Cl)c2)cc(C#N)c(=O)n1C)c1ccc(C#N)cc1` (stereo not drawn) came in with an EC50 of 17 nM. The IC50 in test [2] stood at 0.7 nM; in test [3], 1800 nM.

Consider `Cn1cncc1C(OCc1[nH]c(=O)c(C#N)cc1-c1cccc(Cl)c1)c1ccc(C#N)cc1` (stereo not drawn), for which the EC50 in test [1] was more than 100 nM. The IC50 in test [2] was 0.85 nM; in test [3] it was 820 nM.

As to `Cc1ncc(C(OCc2c(-c3cccc(Cl)c3)cc(C#N)c(=O)n2C)c2ccc(C#N)cc2)n1C` (stereo not drawn), the IC50 in test [2] is 5.3 nM; in test [3] it was more than 900 nM. The inhibition – broadly, the change of the read-out against control, counted positive when it falls – in test [7] was 75%.

With `Cn1cncc1C(OCc1c(-c2ccc(OC(F)(F)F)cc2)cc(C#N)c(=O)n1C)c1ccc(C#N)c(Br)c1` (stereo not drawn), the midpoint of the response in test [1], the EC50, lay at 10 nM. Also, the figures for the IC50 in test [2] and in test [3] were 0.89 nM and 220 nM, respectively.

In turn, `Cn1cncc1C(OCc1c(-c2ccc(OC(F)(F)F)cc2)cc(C#N)c(=O)n1C)c1ccc(C#N)c(Cl)c1` (stereo not drawn) had an EC50 in test [1] of 15 nM. Moreover, the IC50 in test [2] came to 0.36 nM; in test [3], 150 nM.

In turn, `Cn1cncc1C(OCc1c(-c2ccc(F)c(Cl)c2)cc(C#N)c(=O)n1C)c1ccc(C#N)cc1` (stereo not drawn) yielded an EC50 in test [1] of 15 nM. Besides, the IC50 was 1.1 nM in test [2] and 1900 nM in test [3].

In turn, `Cn1cncc1C(OCc1c(-c2ccc(Cl)c(Cl)c2)cc(C#N)c(=O)n1C)c1ccc(C#N)cc1` (stereo not drawn) registered an EC50 in test [1] of 86 nM. Moreover, the IC50 came to 0.49 nM in test [2] and 2300 nM in test [3].

In test [1], `Cn1cncc1C(OCc1c(-c2ccc(OC(F)(F)F)cc2)cc(C#N)c(=O)n1C)c1ccc(C#N)c(-c2ccc(Cl)cc2)c1` (stereo not drawn) showed an EC50 of more than 100 nM. For the same molecule, the IC50 in test [2] is 6.5 nM; in test [3], 160 nM.

With `Cn1cncc1C(OCc1c(-c2cc(Cl)cc(Cl)c2)cc(C#N)c(=O)n1C)c1ccc(C#N)cc1` (stereo not drawn), the EC50 in test [1] was found to be 6.8 nM. The IC50 in test [2] is 0.46 nM; in test [3] it was 1700 nM.

For the molecule `Cn1c(COC(c2ccc(C#N)cc2)c2cncs2)c(-c2cc(Cl)cc(Cl)c2)cc(C#N)c1=O` (stereo not drawn), the EC50 in test [1] is more than 100 nM. The IC50 was 1.9 nM in test [2] and more than 10000 nM in test [3].

Turning to `CCn1c(COC(c2ccc(C#N)cc2)c2cncn2C)c(-c2cccc(Cl)c2)cc(C#N)c1=O` (stereo not drawn), in test [1], the response was half-maximal at 2.9 nM (EC50). Besides, the half-inhibitory concentration (IC50) in test [2] is 0.73 nM; in test [3] it was 3300 nM.

In test [1], `Cn1cncc1C(OCc1c(-c2cc(F)ccc2F)cc(C#N)c(=O)n1C)c1ccc(C#N)cc1` (stereo not drawn) displayed an EC50 of 110 nM. The results for the IC50 in test [2] and in test [3] were 2.7 nM and 15000 nM, respectively.

As to `Cn1cncc1C(OCc1c(-c2cccc(F)c2F)cc(C#N)c(=O)n1C)c1ccc(C#N)cc1` (stereo not drawn), the IC50 was found to be 6.3 nM in test [2] and 3400 nM in test [3]. Besides, the EC50 result in test [6] is given as “Not Active”.

Regarding `Cn1cncc1C(OCc1c(-c2cc(Cl)cc(Cl)c2)cc(C#N)c(=O)n1C)c1ccc(C#N)c(Br)c1` (stereo not drawn), the EC50 in test [1] was more than 100 nM. For the same molecule, the IC50 in test [2] worked out at 0.42 nM; in test [3], 290 nM.

`Cn1cncc1C(OCc1c(-c2cccc(Br)c2)cc(C#N)c(=O)n1C)c1ccc(C#N)cc1` (stereo not drawn) gave an EC50 in test [1] of 2.1 nM. For the same molecule, the IC50 turned out to be 0.51 nM in test [2] and 3400 nM in test [3].

In the case of `Cn1cncc1C(OCc1c(-c2cccc(Cl)c2)cc(C#N)c(=O)n1C)c1ccc(C#N)c(Br)c1` (stereo not drawn), the midpoint of the response in test [1], the EC50, lay at 39 nM. Further, the IC50 in test [2] was found to be 1.3 nM; in test [3], 610 nM.

In the case of `Cn1cncc1C(OCc1c(-c2ccc3c(c2)OC(F)(F)O3)cc(C#N)c(=O)n1C)c1ccc(C#N)cc1` (stereo not drawn), the midpoint of the response in test [1], the EC50, lay at 19 nM. Moreover, the results for the IC50 in test [2] and in test [3] were 0.69 nM and 6200 nM, respectively.

Take `Cn1cncc1C(OCc1c(-c2cc(F)cc(F)c2)cc(C#N)c(=O)n1C)c1ccc(C#N)cc1` (stereo not drawn): the EC50 in test [1] turned out to be 7.3 nM. Besides, the IC50 amounted to 0.84 nM in test [2] and 12000 nM in test [3].

As for `Cn1cncc1C(OCc1c(-c2cccc(Cl)c2)cc(C#N)c(=O)n1CC1CC1)c1ccc(C#N)cc1` (stereo not drawn), the EC50 in test [1] is 4.8 nM. In addition, the IC50 in test [2] stood at 0.5 nM; in test [3], 2000 nM.

As for `CCCn1c(COC(c2ccc(C#N)cc2)c2cncn2C)c(-c2cccc(Cl)c2)cc(C#N)c1=O` (stereo not drawn), a half-maximal effect in test [1] (EC50) was put at 12 nM. The IC50 in test [2] was determined as 0.036 nM; in test [3], 3000 nM.

For the molecule `COc1cccc(-c2cc(C#N)c(=O)n(C)c2COC(c2ccc(C#N)cc2)c2cncn2C)c1` (stereo not drawn), in test [1], the EC50 was 4.7 nM. Moreover, the IC50 in test [2] was 0.41 nM; in test [3], 3200 nM.

Regarding `Cn1cncc1C(OCc1c(-c2cccc(Cl)c2Cl)cc(C#N)c(=O)n1C)c1ccc(C#N)cc1` (stereo not drawn), the results for the IC50 in test [2] and in test [3] were 6.1 nM and 2500 nM, respectively. The EC50 result in test [6] was “Not Active”.

`Cn1c(COC(c2ccc(C#N)cc2)c2cncs2)c(-c2ccc(OC(F)(F)F)cc2)cc(C#N)c1=O` (stereo not drawn): the EC50 entry in test [6] is given as “Not Active”.

In test [1], `Cn1cncc1C(OCc1c(-c2ccc(OC(F)(F)F)cc2)cc(C#N)c(=O)n1C)c1ccc(C#N)c(-c2cccc(Cl)c2)c1` (stereo not drawn) registered an EC50 of more than 100 nM. Besides, the IC50 was found to be 1.3 nM in test [2] and 30 nM in test [3].

Turning to `Cn1cncc1C(OCc1c(-c2cccc(Cl)c2F)cc(C#N)c(=O)n1C)c1ccc(C#N)cc1` (stereo not drawn), the midpoint of the response in test [1], the EC50, lay at 24 nM. Also, the figures for the IC50 in test [2] and in test [3] were 1.8 nM and 1500 nM, respectively.

With `Cn1cncc1C(OCc1c(-c2ccc3c(c2)OCO3)cc(C#N)c(=O)n1C)c1ccc(C#N)cc1` (stereo not drawn), in test [1], a half-maximal effect (EC50) was put at 2.1 nM. Further, the IC50 in test [2] turned out to be 0.42 nM; in test [3], 3300 nM.

Turning to `Cn1cncc1C(OCc1c(-c2ccc(F)cc2F)cc(C#N)c(=O)n1C)c1ccc(C#N)cc1` (stereo not drawn), the EC50 in test [1] was more than 100 nM. The IC50 in test [2] was found to be 5.5 nM; in test [3], 4300 nM.

The molecule `Cn1cncc1C(OCc1c(-c2cc(Cl)cc(Cl)c2)cc(C#N)c(=O)n1C)c1ccc(C#N)c(I)c1` (stereo not drawn) returned an EC50 in test [1] of more than 100 nM. The IC50 in test [2] turned out to be 0.81 nM; in test [3], 7500 nM.

The record behind these values is ChEMBL document CHEMBL1145881, “Pyridone-containing farnesyltransferase inhibitors: synthesis and biological evaluation” (Bioorg Med Chem Lett, 2003).
